Where a name gives a salt, the structure may show the parent alone. Where only a bound is given, the exact number is not on record here.

`N#Cc1ccnc(Cn2nnc3c(-c4ccco4)nc(N)nc32)c1` [Example 105, 3-(4-cyano-2-pyridylmethyl)-7-(2-furyl)-3H-[1,2,3]triazolo[4,5-d]pyrimidine-5-amine] gave a melting point of 263.2 to 263.5 °C.

For the compound `CC(C)(C)OC(=O)Oc1cc(F)c(Cn2nnc3c(-c4ccco4)nc(N)nc32)c(F)c1` [Example 148, tert-butyl (4-(5-amino-7-(2-furyl)-3H-[1,2,3]triazolo[4,5-d]pyrimidine-3-ylmethyl)-3,5-difluorophenyl)carbonate], the melting point was 259.8 to 259.9 °C.

`CC(=O)Nc1cccc(Cn2nnc3c(-c4ccco4)nc(N)nc32)c1` [Example 160] gave a melting point of 277.4 to 277.9 °C.

Turning to `CCc1cccc(Cn2nnc3c(-c4ccco4)nc(N)nc32)n1` [Example 135, 3-(6-ethyl-2-pyridylmethyl)-7-(2-furyl)-3H-[1,2,3]triazolo[4,5-d]pyrimidine-5-amine], the melting point fell in the range of 208.6 to 208.8 °C.

Take `COc1ccc(F)c(Cn2nnc3c(-c4ccco4)nc(N)nc32)c1` [Example 51, 3-(2-fluoro-5-methyoxybenzyl)-7-(2-furyl)-3H-[1,2,3]triazolo[4,5-d]pyrimidine-5-amine]: the melting point is 182.9 to 183.1 °C.

The compound `CC(C)OCc1cccc(Cn2nnc3c(-c4ccco4)nc(N)nc32)n1` [Example 247, 7-(2-furyl)-3-(6-isopropoxymethyl-2-pyridylmethyl)-3H-[1,2,3]triazolo[4,5-d]pyrimidine-5-amine] yielded a melting point of 134.5 to 134.6 °C.

As for `Cc1ccc(Cn2nnc3c(-c4ccco4)nc(N)nc32)cc1N` [Example 90, 3-(3-amino-4-methylbenzyl)-7-(2-furyl)-3H-[1,2,3]triazolo[4,5-d]pyrimidine-5-amine], the melting point was in the range of 268.5 to 269.1 °C.

Compound `Nc1nc(-c2ccco2)c2nnn(Cc3ccc(Cl)c([N+](=O)[O-])c3)c2n1` [Example 110, 3-(4-chloro-3-nitrobenzyl)-7-(2-furyl)-3H-[1,2,3]triazolo[4,5-d]pyrimidine-5-amine] showed a melting point of 247.4 to 247.5 °C.

In turn, `Cc1c(Cn2nnc3c(-c4ccco4)nc(N)nc32)cccc1[N+](=O)[O-]` [Example 88, 7-(2-furyl)-3-(2-methyl-3-nitrobenzyl)-3H-[1,2,3]triazolo[4,5-d]pyrimidine-5-amine] came in with a melting point of 258.8 to 259 °C.

The compound `COc1ccc(Cn2nnc3c(-c4ccco4)nc(N)nc32)cc1OC` (as salt: trifluoroacetate) [Example 122, 3-(3,4-dimethoxybenzyl)-7-(2-furyl)-3H-[1,2,3]triazolo[4,5-d]pyrimidine-5-amine trifluoroacetate salt] displayed a melting point of 227.5 to 228.5 °C.

On to `C=CCOCc1cccc(Cn2nnc3c(-c4ccco4)nc(N)nc32)n1` [Example 185, 3-(6-allyloxymethyl-2-pyridylmethyl)-7-(2-furyl)-3H-[1,2,3]triazolo[4,5-d]pyrimidine-5-amine], for which the melting point was 155.6 to 157.1 °C.

In turn, `C=CCOCc1cccc(Cn2nnc3c(-c4ccco4)nc(N(CC=C)CC=C)nc32)n1` [Example 182, 3-(6-Allyloxymethyl-2-pyridylmethyl)-N,N-diallyl-7-(2-furyl)-3H-[1,2,3]triazolo[4,5-d]pyrimidine-5-amine] registered a melting point of 92.3 to 92.7 °C.

Compound `CNC(=O)c1cccc(Cn2nnc3c(-c4ccc(C)o4)nc(N)nc32)c1` [Example 67, 3-(5-amino-7-(5-methyl-2-furyl)-3H-[1,2,3]triazolo[4,5-d]pyrimidin-3-ylmethyl)-N-methylbenzamide] registered a melting point of 252.9 to 253 °C.

`COc1cc([N+](=O)[O-])ccc1Cn1nnc2c(-c3ccco3)nc(N)nc21` [Example 159, 7-(2-furyl)-3-(2-methoxy-4-nitrobenzyl)-3H-[1,2,3]triazolo[4,5-d]pyrimidine-5-amine] gave a melting point of 235.9 to 237.8 °C.

Consider `Cc1c(N)cccc1Cn1nnc2c(-c3ccco3)nc(N)nc21` [Example 89, 3-(3-amino-2-methylbenzyl)-7-(2-furyl)-3H-[1,2,3]triazolo[4,5-d]pyrimidine-5-amine], for which the melting point lay within 247.1 to 247.2 °C.

In turn, `Nc1cccc(Cn2nnc3c(-c4cccs4)nc(N)nc32)c1` [Example 48, 3-(3-aminobenzyl)-7-(2-thienyl)-3H-[1,2,3]triazolo[4,5-d]pyrimidine-5-amine] showed a melting point of 265.9 to 266 °C.

`Cc1cccc(Cn2nnc3c(-c4ccc(C)o4)nc(N)nc32)n1` [Example 59, 7-(5-methyl-2-furyl)-3-(6-methyl-2-pyridylmethyl)-3H-[1,2,3]triazolo[4,5-d]pyrimidine-5-amine]: the melting point fell in the range of 187.9 to 188.7 °C.

Compound `CSCc1cccc(Cn2nnc3c(-c4ccco4)nc(N)nc32)n1` [Example 234, 7-(2-furyl)-3-(6-methylthiomethyl-2-pyridylmethyl)-3H-[1,2,3]triazolo[4,5-d]pyrimidine-5-amine] registered a melting point of 168.3 to 168.5 °C.

`Nc1nc(-c2ccco2)c2nnn(Cc3ccc(Cl)cc3[N+](=O)[O-])c2n1` [Example 119, 3-(4-chloro-2-nitrobenzyl)-7-(2-furyl)-3H-[1,2,3]triazolo[4,5-d]pyrimidine-5-amine] returned a melting point of over 230 °C.

`Cc1ccc(-c2nc(N)nc3c2nnn3Cc2ccc(N)c(C)c2)o1` [Example 124, 3-(4-amino-3-methylbenzyl)-7-(5-methyl-2-furyl)-3H-[1,2,3]triazolo[4,5-d]pyrimidine-5-amine] returned a melting point of 215.7 to 216.7 °C.

As for `Cc1ccc(-c2nc(N)nc3c2nnn3Cc2cccc(Cl)c2)o1` [Example 62, 3-(3-chlorobenzyl)-7-(5-methyl-2-furyl)-3H-[1,2,3]triazolo[4,5-d]pyrimidine-5-amine], the melting point is 210.4 to 210.5 °C.

The compound `Nc1cccc(Cn2nnc3c(-c4ccc[nH]4)nc(N)nc32)c1` [Example 191, 3-(3-aminobenzyl)-7-(1H-pyrrol-2-yl)-3H-[1,2,3]triazolo[4,5-d]pyrimidine-5-amine] displayed a melting point of 186.1 to 189.1 °C.

In the case of `Nc1nc(-c2ccco2)c2nnn(CC(=O)NCc3ccccn3)c2n1` [Example 53, (5-amino-7-(2-furyl)-3H-[1,2,3]triazolo[4,5-d]pyrimidin-3-yl)-N-(2-pyridylmethyl)acetamide], the melting point was in the range of 256.1 to 256.4 °C.

`Cc1ccc(-c2nc(N)nc3[nH]nnc23)o1` [Example 19, 7-(5-Methyl-2-furyl)-1H-[1,2,3]triazolo[4,5-d]pyrimidine-5-amine]: the melting point was in the range of 291.8 to 292 °C.

For the compound `CCc1cc(Cn2nnc3c(-c4ccco4)nc(N)nc32)ccn1` [Example 136, 3-(2-ethyl-4-pyridylmethyl)-7-(2-furyl)-3H-[1,2,3]triazolo[4,5-d]pyrimidine-5-amine], the melting point is 172.7 to 173.2 °C.

Compound `Cc1cc(Cn2nnc3c(-c4ccco4)nc(N)nc32)cc(C)c1[N+](=O)[O-]` [Example 259, 3-(3,5-dimethyl-4-nitrobenzyl)-7-(2-furyl)-3H-[1,2,3]triazolo[4,5-d]pyrimidine-5-amine] registered a melting point of 228.4 to 228.5 °C.

On to `CC(C)c1cc(Cn2nnc3c(-c4ccco4)nc(N)nc32)ccc1[N+](=O)[O-]` [Example 187, 7-(2-furyl)-3-(3-isopropyl-4-nitrobenzyl)-3H-[1,2,3]triazolo[4,5-d]pyrimidine-5-amine], for which the melting point was in the range of 191.7 to 191.9 °C.

Turning to `Nc1nc(-c2ccco2)c2nnn(Cc3ccc(Cl)c(N)c3)c2n1` [Example 114, 3-(3-amino-4-chlorobenzyl)-7-(2-furyl)-3H-[1,2,3]triazolo[4,5-d]pyrimidine-5-amine], the melting point was in the range of 256.7 to 257.1 °C.

Consider `Nc1nc(-c2ccco2)c2nnn(CCc3cccs3)c2n1` [Example 196, 7-(2-furyl)-3-(2-(2-thienylethyl))-3H-[1,2,3]triazolo[4,5-d]pyrimidine-5-amine], for which the melting point lay in the range of 178.4 to 179 °C.

In the case of `CC(C)(C)OC(=O)n1ccc2cc(Cn3nnc4c(-c5ccco5)nc(N)nc43)ccc21` [Example 142, tert-butyl 5-(5-amino-7-(2-furyl)-3H-[1,2,3]triazolo[4,5-d]pyrimidine-3-ylmethyl)indole-1-carboxylate], the melting point is 189 to 189.1 °C.

On to `NCc1ccc(Cn2nnc3c(-c4ccco4)nc(N)nc32)cc1` [Example 144, 3-(4-aminomethylbenzyl)-7-(2-furyl)-3H-[1,2,3]triazolo[4,5-d]pyrimidine-5-amine], for which the melting point is > 300 °C (dec.).

As to `CN(C)c1cccc(Cn2nnc3c(-c4ccco4)nc(N)nc32)c1` [Example 162, 3-(3-(N,N-dimethylamino)benzyl)-7-(2-furyl)-3H-[1,2,3]triazolo[4,5-d]pyrimidine-5-amine], the melting point was in the range of 195.1 to 195.2 °C.

With `CCOc1cccc(Cn2nnc3c(-c4ccc(C)o4)nc(N)nc32)n1` [Example 254, 3-(6-ethoxy-2-pyridylmethyl)-7-(5-methyl-2-furyl)-3H-[1,2,3]triazolo[4,5-d]pyrimidine-5-amine], the melting point was in the range of 190.8 to 190.9 °C.

Take `Cc1cnccc1Cn1nnc2c(-c3ccco3)nc(N)nc21` [Example 126, 7-(2-furyl)-3-(3-methyl-4-pyridylmethyl)-3H-[1,2,3]triazolo[4,5-d]pyrimidine-5-amine]: the melting point is 229.6 to 230.3 °C.

Regarding `Cc1cc(Cn2nnc3c(-c4ccco4)nc(N)nc32)ccc1[N+](=O)[O-]` [Example 94, 7-(2-furyl)-3-(3-methyl-4-nitrobenzyl)-3H-[1,2,3]triazolo[4,5-d]pyrimidine-5-amine], the melting point is 237.8 to 238 °C.

Compound `COCc1cccc(Cn2nnc3c(-c4ccc(C)o4)nc(N)nc32)n1` [Example 183, 3-(6-methoxymethyl-2-pyridylmethyl)-7-(5-methyl-2-furyl)-3H-[1,2,3]triazolo[4,5-d]pyrimidine-5-amine] registered a melting point of 152 to 153.5 °C.

Consider `CC(C)(C)OC(=O)NCc1ccccc1Cn1nnc2c(-c3ccco3)nc(N)nc21` [Example 157, tert-butyl N-(2-(5-amino-7-(2-furyl)-3H-[1,2,3]triazolo[4,5-d]pyrimidine-3-ylmethyl)benzyl)carbamate], for which the melting point is 204.2 to 204.4 °C.

As usually defined, the melting point is the temperature, or range, at which the solid turns liquid.

Source of the values: US7589097B2, “Triazol[4,5-d] pyramidine derivatives and their use as purinergic receptor antagonists” (Vernalis Research Limited, priority 2001, dated 2009).
